According to ChEMBL document CHEMBL4715849, “Recent Progress in the Discovery of Antifungal Agents Targeting the Cell Wall” (J Med Chem, 2020):
In brackets after ≈: the same amount, converted by molar mass.

Experiments:
Candida albicans [1] = experiment: Antifungal activity against Candida albicans ATCC 10261 incubated for 24 hrs by serial dilution method; type: functional
[2] = Inhibition of Candida albicans glucosamine-6-phosphate synthase by Elson-Morgan method
Candida albicans [3] = experiment: Antifungal activity against Candida albicans ATCC 26278 incubated for 24 hrs by serial dilution method; type: functional
Candida tropicalis = experiment: Antifungal activity against Candida tropicalis FP583 by agar dilution method; type: functional
Candida parapsilosis [4] = experiment: Antifungal activity against Candida parakrusei FP586 by agar dilution method; type: functional; settings: Lodderomyces parapsilosis
Pichia kudriavzevii [5] = experiment: Antifungal activity against Candida krusei FP585 by agar dilution method; type: functional
Candida albicans [6] = experiment: Antifungal activity against Candida albicans FP616 by agar dilution method; type: functional
Candida albicans [7] = experiment: Antifungal activity against Candida albicans FP614 by agar dilution method; type: functional
Candida albicans [8] = experiment: Antifungal activity against Candida albicans FP622 by agar dilution method; type: functional
Candida albicans [9] = experiment: Antifungal activity against Candida albicans FP615 by agar dilution method; type: functional
[10] = Inhibition of Saccharomyces cerevisiae CTS1 incubated for 70 mins by fluorescence method
Endochitinase A1 = Endochitinase A1 (Aspergillus fumigatus, UniProt Q873Y0); experiment: Inhibition of Aspergillus fumigatus chiA1 (Arg28 to His337) expressed in Pichia pastoris incubated for 70 mins using 4MU-NAc3 as substrate by fluorescence method
Sequence of Endochitinase A1 (Q873Y0 whole entry): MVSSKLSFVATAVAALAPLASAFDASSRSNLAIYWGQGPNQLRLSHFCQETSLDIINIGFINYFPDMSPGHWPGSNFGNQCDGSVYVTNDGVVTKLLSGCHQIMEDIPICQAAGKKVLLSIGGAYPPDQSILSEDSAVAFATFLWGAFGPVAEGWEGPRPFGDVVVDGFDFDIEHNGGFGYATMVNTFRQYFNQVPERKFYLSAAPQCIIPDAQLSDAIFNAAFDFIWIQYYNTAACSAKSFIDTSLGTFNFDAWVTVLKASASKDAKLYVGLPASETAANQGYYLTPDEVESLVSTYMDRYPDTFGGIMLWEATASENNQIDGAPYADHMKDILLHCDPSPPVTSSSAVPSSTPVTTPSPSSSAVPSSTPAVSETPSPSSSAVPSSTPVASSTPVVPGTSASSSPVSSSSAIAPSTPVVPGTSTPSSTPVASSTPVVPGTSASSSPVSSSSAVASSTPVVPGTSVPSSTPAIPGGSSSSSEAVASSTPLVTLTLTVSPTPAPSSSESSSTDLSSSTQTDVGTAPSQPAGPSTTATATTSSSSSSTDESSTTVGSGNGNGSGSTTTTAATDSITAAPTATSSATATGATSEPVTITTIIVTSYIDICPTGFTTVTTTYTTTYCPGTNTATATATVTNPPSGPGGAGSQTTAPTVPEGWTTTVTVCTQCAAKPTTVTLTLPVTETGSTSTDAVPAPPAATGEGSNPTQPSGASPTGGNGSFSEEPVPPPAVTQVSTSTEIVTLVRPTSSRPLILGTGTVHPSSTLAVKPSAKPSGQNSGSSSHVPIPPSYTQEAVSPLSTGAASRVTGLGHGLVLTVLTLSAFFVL

[11] = Inhibition of Candida albicans GFA1 using D-Fru6P and L-glutamine as substrate by absorbance method
Candida albicans [12] = experiment: Antifungal activity against Candida albicans ATCC 10231 by CLSI-based serial dilution method; type: functional
[13] = Half life in Beagle dog at 1.4 mg/kg, iv measured up to 72 hrs by LC-MS/MS analysis; type: ADME, organism-based, Canis lupus familiaris; settings: in vivo
[14] = Half life in human at 50 mg by liquid chromatography-tandem mass spectrometry method; type: ADME; settings: in vivo
[15] = Inhibition of Candida albicans GFA1 using D-Fru6P and L-glutamine as substrate incubated for 30 mins by Elson-Morgan method
Candida albicans [16] = experiment: Antifungal activity against Candida albicans infected in mouse assessed as protection against fungus-induced lethal infection; type: functional; settings: read-out: PD50
Pichia kudriavzevii [17] = experiment: Antifungal activity against Candida krusei DSM 6128 by CLSI-based serial dilution method; type: functional
Nakaseomyces glabratus = experiment: Antifungal activity against Candida glabrata DSM 11226 by CLSI-based serial dilution method; type: functional
[18] = Antifungal activity against Candida arborea KKP319 by CLSI-based serial dilution method; type: functional
Aspergillus fumigatus [19] = experiment: Antifungal activity against Aspergillus fumigatus CF1083 infected in iv dosed mouse model of pulmonary aspergillosis administered once daily for 4 days and measured on day 14; type: functional; settings: 336 h, time 14 day
[20] = Inhibition of fungi 1,3-beta-D-glucan synthase
Candida albicans [21] = experiment: Antifungal activity against Candida albicans Ca1055 by CLSI method; type: functional
Candida parapsilosis [22] = experiment: Antifungal activity against Candida parapsilosis ATCC22019 by CLSI method; type: functional; settings: Lodderomyces parapsilosis
Candida albicans [23] = experiment: Antifungal activity against Candida albicans Ca2323/ORF6.945 by CLSI method; type: functional
Aspergillus fumigatus [24] = experiment: Antifungal activity against Aspergillus fumigatus MF5668 by CLSI method; type: functional

With N[C@@H](CO)[C@@H](O)[C@H](O)[C@H](O)COP(=O)(O)O the MIC (Candida albicans [1]) was 5000 mg/L (≈ 19100 µM), the IC50 [2] was 230 µM and the MIC (Candida albicans [3]) was 5000 mg/L (≈ 19100 µM).
For CCC/C=C/C=C/[C@@H](O)C/C=C/C=C/C(=O)O[C@H]1[C@H](O[C@@H]2O[C@H](COC(=O)/C=C/C=C\CCCCC)[C@H](O)[C@H](O)[C@H]2O)[C@@H](CO)O[C@]2(OCc3cc(O)cc(O)c32)[C@@H]1O, the MIC (Candida tropicalis) was 0.1 mg/L (≈ 0.12 µM), the MIC (Candida parapsilosis [4]) was 0.1 mg/L (≈ 0.12 µM) and the MIC (Pichia kudriavzevii [5]) was 0.1 mg/L (≈ 0.12 µM). It also gave an MIC (Candida albicans [6]) of 0.1 mg/L (≈ 0.12 µM), an MIC (Candida albicans [7]) of 0.1 mg/L (≈ 0.12 µM) and an MIC (Candida albicans [8]) of 0.1 mg/L (≈ 0.12 µM). The MIC (Candida albicans [9]) was 0.1 mg/L (≈ 0.12 µM).
For Cc1ccc(OCC(O)CNC2Cc3ccccc3C2)cc1C (stereo not given), the IC50 [10] was 2.4 µM and the IC50 (Endochitinase A1) was 9.2 µM.
In the case of CC(=O)N[C@H]1C(O)O[C@H](CS(=O)(=O)O)[C@@H](O)[C@@H]1O (stereo not given in full), the IC50 [11] is reported as > 5000 µM and the MIC (Candida albicans [12]) is reported as 500 mg/L (≈ 1750 µM).
With CC(=O)[O-].CCCCCOc1ccc(-c2ccc(-c3ccc(C(=O)N[C@H]4C[C@@H](O)[C@@H](NCC[N+](C)(C)C)NC(=O)[C@@H]5[C@@H](O)[C@@H](C)CN5C(=O)[C@H]([C@@H](C)O)NC(=O)[C@H]([C@H](O)[C@@H](O)c5ccc(O)cc5)NC(=O)[C@@H]5C[C@@H](O)CN5C(=O)[C@H]([C@@H](C)O)NC4=O)cc3)cc2)cc1 the half-life [13] was 53.1 h and the half-life [14] was > 130 h.
In the case of N[C@@H](CO)[C@@H](O)[C@H](O)[C@H](O)CS(=O)(=O)O, the IC50 [15] is reported as 130 µM and the MIC (Candida albicans [12]) is reported as 1000 mg/L (≈ 4080 µM).
For COc1cc(O)c2c(c1)C(=O)c1c(cc3c(c1O)-c1c(cc(C)c(C(=O)NC(C)C(=O)O)c1O)[C@H](O[C@@H]1O[C@H](C)[C@H](O)[C@H](O[C@@H]4OC[C@@H](O)[C@H](O)[C@H]4O)[C@H]1O)[C@H]3O)C2=O (stereo not given in full), the ED50 (Candida albicans [16]) was 71 mg/kg.
In the case of COS(=O)(=O)C[C@H]1OC(O)[C@H](N)[C@@H](O)[C@@H]1O (stereo not given in full), the MIC (Pichia kudriavzevii [17]) is reported as > 4000 mg/L, the MIC (Nakaseomyces glabratus) is reported as > 4000 mg/L and the MIC [18] is reported as > 4000 mg/L. The MIC (Candida albicans [12]) was > 4000 mg/L.
For COc1cc(O)c2c(c1)C(=O)c1c(cc3c(c1O)-c1c(cc(C)c(C(=O)N[C@H](CO)C(=O)O)c1O)[C@H](O[C@@H]1O[C@H](C)[C@H](O)[C@H](O[C@@H]4OC[C@@H](O)[C@H](O)[C@H]4O)[C@H]1O)[C@H]3O)C2=O, the ED50 (Candida albicans [16]) was 33 mg/kg.
With CCCCCCCCCCCCC[C@H]1OC(=O)[C@H](CCCNC(=O)[C@@H](CCCN)N(CCN)CCN)NC(=O)[C@@H]([C@@H](C)O)NC(=O)CNC(=O)[C@H]([C@H](O)CC(N)=O)NC(=O)[C@H]2[C@@H](O)CCN2C(=O)[C@H]([C@@H](C)O)NC(=O)[C@@H]2C[C@@H](O)CN2C(=O)[C@H](C(C)C)NC(=O)[C@H](Cc2ccc(O)cc2)NC(=O)[C@@H](C)NC(=O)[C@H]([C@@H](C)O)NC1=O the ED50 (Aspergillus fumigatus [19]) was 5.2 mg/kg and the IC50 [20] was 0.0009 µM.
Work on Nc1ccccc1C(=O)OCC#CCOC(=O)c1ccccc1N yielded an MIC (Candida albicans [21]) of 4 mg/L (≈ 12.3 µM), an MIC (Candida parapsilosis [22]) of 2 mg/L (≈ 6.17 µM) and an MIC (Candida albicans [23]) of 4 mg/L (≈ 12.3 µM). For the same compound, the MIC (Aspergillus fumigatus [24]) was 4 mg/L (≈ 12.3 µM).
